Reference: US8975232B2, “Macrocyclic kinase inhibitors and uses thereof” (President and Fellows of Harvard College, priority 2010, dated 2015)

Columns and labels:
Akt3 = Akt3 (Homo sapiens, UniProt Q9Y243); experiment: Z'-LYTE kinase assay (Invitrogen SelectScreen); format: biochemical; details: AKT3 (PKB gamma); 5 μM
Description: (§1) Macrocycles A10-B1-C11-D5 and A10-B8-C11-D5 were enriched 2- to 6-fold upon selection for binding Akt3, MAPKAPK2, Pim1, and VEGFR2 (FIG. 6). These two macrocycles are structurally similar, sharing nitrophenylalanine (A10) and cyclohexylstatine (C11) building blocks as well as the same lysine scaffold (D5), and differ only at the B building block with either furylalanine (B1) or cyclohexylalanine (B8) (FIG. 6). For assay purposes, the macrocycles were synthesized with C-terminal PEG-diamine linkers to aid solubility, and then tested for the ability to inhibit Akt3, MAPKAPK2, Pim1 and VEGFR2.
(§2) Src IC50 determinations and single-point inhibition measurements were performed using Invitrogen's Z′-LYTE Tyr 02 assay kit according to the manufacturer's protocols. All kinase assays were performed at ATP concentrations near KM,ATP values, except where noted otherwise. Active human Src kinase was obtained from Millipore. For kinome profiling and IC50 determinations against non-Src kinases, compounds were submitted to Invitrogen's SelectScreen Kinase Profiling Service.

MAPKAPK2 (MK2) = MAPKAPK2 (MK2) (Homo sapiens, UniProt P49137); experiment: Z'-LYTE kinase assay (Invitrogen SelectScreen); format: biochemical; details: MAPKAPK2; 5 μM
Description: as §1, §2

Pim1 = Pim1 (Homo sapiens, UniProt P11309); experiment: Z'-LYTE kinase assay (Invitrogen SelectScreen); format: biochemical; details: PIM1; 5 μM
Pim1, sequence (P11309 whole entry): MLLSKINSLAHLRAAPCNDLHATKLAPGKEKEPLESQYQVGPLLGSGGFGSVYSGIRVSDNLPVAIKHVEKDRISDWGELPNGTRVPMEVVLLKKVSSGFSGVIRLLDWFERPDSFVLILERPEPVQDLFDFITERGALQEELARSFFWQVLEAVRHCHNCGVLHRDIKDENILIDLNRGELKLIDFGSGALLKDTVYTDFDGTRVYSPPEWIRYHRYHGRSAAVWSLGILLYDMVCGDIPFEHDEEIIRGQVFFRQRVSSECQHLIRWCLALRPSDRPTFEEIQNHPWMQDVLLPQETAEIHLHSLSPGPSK
Description: as §1, §2

VEGFR2 (KDR) = VEGFR2 (KDR) (Homo sapiens, UniProt P35968); experiment: Z'-LYTE kinase assay (Invitrogen SelectScreen); format: biochemical; details: KDR (VEGFR2); 5 μM
Description: as §1, §2

Abl = molecular target: T1, Abl (Homo sapiens, UniProt P00519); experiment: Continuous spectrophotometric kinase activity assay; format: biochemical
T1 construct: human c-Abl (residues 229-512); made in house
T1 sequence (P00519 229-512): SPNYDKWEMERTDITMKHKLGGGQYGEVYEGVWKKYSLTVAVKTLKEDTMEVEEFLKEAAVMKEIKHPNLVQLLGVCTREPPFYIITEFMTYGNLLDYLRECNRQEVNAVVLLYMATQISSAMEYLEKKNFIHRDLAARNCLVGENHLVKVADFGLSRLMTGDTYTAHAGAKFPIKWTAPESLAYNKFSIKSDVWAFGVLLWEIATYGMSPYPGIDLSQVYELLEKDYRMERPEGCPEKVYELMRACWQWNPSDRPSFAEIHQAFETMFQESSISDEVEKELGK

[1] = molecular target: T2, Src kinase domain (chicken c-Src residues 251-533) (Gallus gallus, UniProt P00523); experiment: as above; format: biochemical; details: Src kinase domain
T2 construct: chicken c-Src (residues 251-533 and residues 83-533); made in house

Src Thr338Ile = experiment: Inhibition of Src gatekeeper mutant; format: biochemical, chicken
Description: Kinase domain constructs of human c-Abl (residues 229-512), chicken c-Src (residues 251-533 and residues 83-533), murine Lck (residues 227-509), and human Hck (residues 166-445) were expressed as previously described (Seeliger, Young et al. 2005; Seeliger, Nagar et al. 2007; the entire contents of each of which are incorporated by reference herein). Mutations were introduced into chicken c-Src (residues 251-533) (T338I, C277Q, L297M) by site-directed mutagenesis and verified by DNA sequencing.
For the FRET-based endpoint assay, kinase assays were performed using Invitrogen's Z′-LYTE kinase assay using the Tyr 02 substrate peptide (based upon the optimal Abl substrate peptide […]) according to the manufacturer's instructions. Assays were performed at near KM ATP concentrations for full-length c-Src and full-length c-Src T338I-50 μM and 7 μM, respectively.

RPS6KA3 (RSK2) = RPS6KA3 (RSK2) (Homo sapiens, UniProt P51812); experiment: SelectScreen kinase profiling; format: biochemical; details: 5 μM
Method: as §2

AKT1 (PKB alpha) = AKT1 (PKB alpha) (Homo sapiens, UniProt P31749); experiment: SelectScreen kinase profiling; format: biochemical; details: 5 μM
Method: as §2

PAK4 = PAK4 (Homo sapiens, UniProt O96013); experiment: SelectScreen kinase profiling; format: biochemical; details: 5 μM
PAK4, sequence (O96013 whole entry): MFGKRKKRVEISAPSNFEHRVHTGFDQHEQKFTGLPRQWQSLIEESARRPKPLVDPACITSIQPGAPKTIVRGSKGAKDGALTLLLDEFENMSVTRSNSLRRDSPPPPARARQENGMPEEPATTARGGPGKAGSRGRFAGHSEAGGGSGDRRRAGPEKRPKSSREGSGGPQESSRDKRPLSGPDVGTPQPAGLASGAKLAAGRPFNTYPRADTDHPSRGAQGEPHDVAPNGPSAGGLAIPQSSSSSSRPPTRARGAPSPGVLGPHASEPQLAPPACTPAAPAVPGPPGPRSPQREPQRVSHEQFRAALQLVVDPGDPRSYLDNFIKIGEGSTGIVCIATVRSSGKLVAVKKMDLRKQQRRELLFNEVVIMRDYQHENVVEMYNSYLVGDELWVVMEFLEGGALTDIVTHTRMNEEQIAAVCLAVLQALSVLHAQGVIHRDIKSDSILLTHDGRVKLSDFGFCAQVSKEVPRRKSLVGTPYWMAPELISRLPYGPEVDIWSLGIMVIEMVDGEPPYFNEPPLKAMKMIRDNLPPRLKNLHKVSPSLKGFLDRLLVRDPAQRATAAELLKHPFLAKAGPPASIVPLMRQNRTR
Method: as §2

MAP2K1 (MEK1) = MAP2K1 (MEK1) (Homo sapiens, UniProt Q02750); experiment: SelectScreen kinase profiling; format: biochemical; details: 5 μM
Method: as §2

MAP4K4 (HGK) = MAP4K4 (HGK) (Homo sapiens, UniProt O95819); experiment: SelectScreen kinase profiling; format: biochemical; details: 5 μM
MAP4K4 (HGK), sequence (O95819 whole entry): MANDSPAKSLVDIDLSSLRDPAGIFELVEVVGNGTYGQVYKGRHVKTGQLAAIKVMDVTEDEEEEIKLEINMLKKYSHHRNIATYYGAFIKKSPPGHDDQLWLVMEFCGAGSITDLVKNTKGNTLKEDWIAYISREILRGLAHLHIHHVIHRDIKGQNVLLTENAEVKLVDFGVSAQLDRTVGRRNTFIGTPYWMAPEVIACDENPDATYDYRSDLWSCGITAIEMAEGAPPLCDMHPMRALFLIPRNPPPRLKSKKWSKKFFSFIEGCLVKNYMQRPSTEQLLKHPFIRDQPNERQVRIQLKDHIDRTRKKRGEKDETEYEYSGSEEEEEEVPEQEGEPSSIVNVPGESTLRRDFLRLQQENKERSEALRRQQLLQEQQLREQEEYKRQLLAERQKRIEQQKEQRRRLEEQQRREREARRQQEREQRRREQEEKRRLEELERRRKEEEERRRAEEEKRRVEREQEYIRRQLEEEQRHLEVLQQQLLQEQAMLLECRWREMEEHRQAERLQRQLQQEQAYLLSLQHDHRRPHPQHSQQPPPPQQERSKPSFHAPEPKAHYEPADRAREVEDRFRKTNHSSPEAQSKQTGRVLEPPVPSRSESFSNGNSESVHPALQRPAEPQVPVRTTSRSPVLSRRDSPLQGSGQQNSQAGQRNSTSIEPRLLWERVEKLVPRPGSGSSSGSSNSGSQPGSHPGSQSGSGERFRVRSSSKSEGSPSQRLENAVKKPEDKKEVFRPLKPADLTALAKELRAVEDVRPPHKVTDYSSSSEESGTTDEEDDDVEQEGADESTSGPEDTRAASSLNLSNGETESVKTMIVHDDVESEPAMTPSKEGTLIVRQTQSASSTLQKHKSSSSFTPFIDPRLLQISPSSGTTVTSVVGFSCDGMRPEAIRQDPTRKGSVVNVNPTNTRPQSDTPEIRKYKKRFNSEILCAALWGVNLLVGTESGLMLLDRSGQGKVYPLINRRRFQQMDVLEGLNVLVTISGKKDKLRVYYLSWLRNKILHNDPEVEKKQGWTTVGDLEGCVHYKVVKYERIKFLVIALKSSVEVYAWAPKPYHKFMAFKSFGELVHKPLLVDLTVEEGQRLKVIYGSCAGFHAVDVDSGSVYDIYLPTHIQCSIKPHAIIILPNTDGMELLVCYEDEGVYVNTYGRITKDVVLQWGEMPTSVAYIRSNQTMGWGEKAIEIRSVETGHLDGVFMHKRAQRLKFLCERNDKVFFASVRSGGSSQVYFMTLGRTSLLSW
Method: as §2

IGF1R = IGF1R (Homo sapiens, UniProt P08069); experiment: SelectScreen kinase profiling; format: biochemical; details: 5 μM
Method: as §2

JAK3 = JAK3 (Homo sapiens, UniProt P52333); experiment: SelectScreen kinase profiling; format: biochemical; details: 5 μM
JAK3, sequence (P52333 whole entry): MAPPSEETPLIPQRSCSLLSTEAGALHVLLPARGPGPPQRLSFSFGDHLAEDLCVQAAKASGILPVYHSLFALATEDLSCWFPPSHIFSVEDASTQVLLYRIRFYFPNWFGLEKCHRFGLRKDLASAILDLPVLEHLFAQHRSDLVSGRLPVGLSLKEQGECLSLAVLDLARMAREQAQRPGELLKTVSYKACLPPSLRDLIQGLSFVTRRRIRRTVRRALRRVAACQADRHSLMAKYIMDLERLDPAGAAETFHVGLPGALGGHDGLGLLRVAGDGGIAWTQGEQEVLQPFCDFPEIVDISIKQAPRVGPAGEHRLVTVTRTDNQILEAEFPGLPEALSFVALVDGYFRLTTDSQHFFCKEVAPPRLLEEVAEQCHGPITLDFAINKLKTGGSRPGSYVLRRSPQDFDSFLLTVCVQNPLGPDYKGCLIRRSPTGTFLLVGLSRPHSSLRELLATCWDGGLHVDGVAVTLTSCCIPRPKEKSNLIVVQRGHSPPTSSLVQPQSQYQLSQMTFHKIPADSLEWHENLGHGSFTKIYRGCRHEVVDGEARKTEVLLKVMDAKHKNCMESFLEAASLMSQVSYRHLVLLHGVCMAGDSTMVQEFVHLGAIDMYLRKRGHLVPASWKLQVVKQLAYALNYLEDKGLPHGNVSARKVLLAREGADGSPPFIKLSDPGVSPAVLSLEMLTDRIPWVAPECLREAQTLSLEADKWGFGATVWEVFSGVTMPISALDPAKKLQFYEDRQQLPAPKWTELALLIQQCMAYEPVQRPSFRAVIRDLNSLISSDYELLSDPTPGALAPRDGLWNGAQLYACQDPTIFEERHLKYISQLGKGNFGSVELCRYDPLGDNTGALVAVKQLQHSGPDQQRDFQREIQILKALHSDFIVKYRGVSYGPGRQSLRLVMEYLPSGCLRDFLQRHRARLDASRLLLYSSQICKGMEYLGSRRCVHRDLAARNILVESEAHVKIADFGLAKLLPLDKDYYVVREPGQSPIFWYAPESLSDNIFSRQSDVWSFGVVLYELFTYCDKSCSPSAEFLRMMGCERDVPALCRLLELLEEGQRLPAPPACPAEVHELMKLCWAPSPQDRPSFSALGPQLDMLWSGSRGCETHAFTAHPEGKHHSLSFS
Method: as §2

LYN A = LYN A (Homo sapiens, UniProt P07948); experiment: SelectScreen kinase profiling; format: biochemical; details: 5 μM
LYN A, sequence (P07948 whole entry): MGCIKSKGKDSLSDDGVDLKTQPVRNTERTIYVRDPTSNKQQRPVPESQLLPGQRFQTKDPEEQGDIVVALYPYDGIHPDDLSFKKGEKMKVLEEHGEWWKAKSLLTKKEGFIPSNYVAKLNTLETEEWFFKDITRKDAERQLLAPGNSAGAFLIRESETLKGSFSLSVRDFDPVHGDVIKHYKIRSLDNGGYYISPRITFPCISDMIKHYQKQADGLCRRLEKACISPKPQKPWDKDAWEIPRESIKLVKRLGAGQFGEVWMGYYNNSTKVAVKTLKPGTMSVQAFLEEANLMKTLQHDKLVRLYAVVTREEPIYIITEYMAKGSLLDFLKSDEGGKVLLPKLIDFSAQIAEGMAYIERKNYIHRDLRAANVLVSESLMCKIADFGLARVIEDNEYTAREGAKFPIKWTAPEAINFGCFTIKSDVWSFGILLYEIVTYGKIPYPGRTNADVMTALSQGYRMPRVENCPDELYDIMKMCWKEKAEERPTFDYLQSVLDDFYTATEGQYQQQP
Method: as §2

SYK = SYK (Homo sapiens, UniProt P43405); experiment: SelectScreen kinase profiling; format: biochemical; details: 5 μM
Method: as §2

ROCK1 = ROCK1 (Homo sapiens, UniProt Q13464); experiment: SelectScreen kinase profiling; format: biochemical; details: 5 μM
Method: as §2

BTK = BTK (Homo sapiens, UniProt Q06187); experiment: SelectScreen kinase profiling; format: biochemical; details: 5 μM
BTK, sequence (Q06187 whole entry): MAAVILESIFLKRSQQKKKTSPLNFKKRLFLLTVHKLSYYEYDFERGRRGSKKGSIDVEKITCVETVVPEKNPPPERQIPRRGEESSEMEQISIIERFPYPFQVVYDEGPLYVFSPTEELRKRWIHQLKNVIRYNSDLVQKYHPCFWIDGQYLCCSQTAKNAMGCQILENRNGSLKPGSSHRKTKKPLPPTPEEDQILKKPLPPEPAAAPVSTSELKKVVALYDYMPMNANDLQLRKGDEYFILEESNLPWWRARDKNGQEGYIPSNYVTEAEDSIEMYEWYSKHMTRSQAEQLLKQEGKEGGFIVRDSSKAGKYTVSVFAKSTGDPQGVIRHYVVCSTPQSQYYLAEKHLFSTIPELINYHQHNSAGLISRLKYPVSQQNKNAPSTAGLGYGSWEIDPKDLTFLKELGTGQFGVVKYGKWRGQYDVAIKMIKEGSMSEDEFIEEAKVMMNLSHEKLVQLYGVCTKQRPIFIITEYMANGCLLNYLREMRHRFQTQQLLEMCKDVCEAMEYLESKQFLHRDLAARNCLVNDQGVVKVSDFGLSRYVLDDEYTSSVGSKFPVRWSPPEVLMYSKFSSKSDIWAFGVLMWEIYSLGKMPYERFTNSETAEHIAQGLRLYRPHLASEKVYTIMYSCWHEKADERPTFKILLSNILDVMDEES
Method: as §2

HCK = HCK (Homo sapiens, UniProt P08631); experiment: SelectScreen kinase profiling; format: biochemical; details: HCK; 5 μM
Method: as §2

YES1 = YES1 (Homo sapiens, UniProt P07947); experiment: SelectScreen kinase profiling; format: biochemical; details: 5 μM
Method: as §2

MAP2K6 (MKK6) = MAP2K6 (MKK6) (Homo sapiens, UniProt P52564); experiment: SelectScreen kinase profiling; format: biochemical; details: 5 μM
MAP2K6 (MKK6), sequence (P52564 whole entry): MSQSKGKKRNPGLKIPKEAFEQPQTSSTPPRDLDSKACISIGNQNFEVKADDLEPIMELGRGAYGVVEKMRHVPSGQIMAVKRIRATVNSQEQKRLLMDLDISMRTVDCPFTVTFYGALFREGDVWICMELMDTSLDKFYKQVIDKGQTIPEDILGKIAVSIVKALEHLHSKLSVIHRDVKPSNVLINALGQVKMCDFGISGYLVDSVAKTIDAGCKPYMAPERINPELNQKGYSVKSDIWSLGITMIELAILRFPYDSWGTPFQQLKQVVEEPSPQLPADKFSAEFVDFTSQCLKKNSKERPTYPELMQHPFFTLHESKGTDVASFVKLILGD
Method: as §2

AURKC (Aurora C) = AURKC (Aurora C) (Homo sapiens, UniProt Q9UQB9); experiment: SelectScreen kinase profiling; format: biochemical; details: 5 μM
Method: as §2

[2] = 5 μM ATP, 100 μM Src optimal peptide
[3] = 250 μM ATP, 300 μM Src optimal peptide

NC(=O)[C@@H]1CCCNC(=O)[C@H](Cc2ccc([N+](=O)[O-])cc2)NC(=O)[C@H](Cc2ccco2)NC(=O)[C@H](CC2CC2)NC(=O)/C=C/C(=O)N1 [trans-A10-B1-C5-D6]
% inhibition (Akt3): 11%
% inhibition (MAPKAPK2 (MK2)): −3%
% inhibition (Pim1): −3%
% inhibition (VEGFR2 (KDR)): 7%
IC50 (Abl; [2]): > 100 µM
IC50 (Abl; 5 μM ATP, 300 μM Src optimal peptide): > 100 µM
IC50 (Abl; [3]): > 100 µM
IC50 [1, 2]: 11 µM
IC50 [1, 3]: 21 µM
inhibition of Src Thr338Ile gatekeeper mutant (in words) (Src Thr338Ile): retained their inhibition potency
% inhibition (RPS6KA3 (RSK2)): −4%
% inhibition (AKT1 (PKB alpha)): −7%
% inhibition (PAK4): −2%
% inhibition (MAP2K1 (MEK1)): −6%
% inhibition (MAP4K4 (HGK)): −1%
% inhibition (IGF1R): 9%
% inhibition (JAK3): −7%
% inhibition (LYN A): 9%
% inhibition (SYK): −1%
% inhibition (ROCK1): 12%
% inhibition (BTK): 4%
% inhibition (HCK): 9%
% inhibition (YES1): 19%
% inhibition (MAP2K6 (MKK6)): −1%
% inhibition (AURKC (Aurora C)): 2%
